Patent US20260184689A1, “PIPERIDINE-SUBSTITUTED BENZOIC ACID COMPOUND, AND PHARMACEUTICAL COMPOSITION AND USE THEREOF” (SHANGHAI YISHENG BIOPHARMACEUTICAL COMPANY LIMITED, priority 2022, published 2026)

Assays:
[1] = Pharmacokinetic activity assay in mice; type: in vivo; conditions: IV 1 mg/kg, PO 10 mg/kg
Description: Experimental objective: The test substance was administered to mice via single-dose intravenous and oral gavage routes, and its plasma concentration was measured to evaluate the pharmacokinetic characteristics in mice.
Experimental animals: C57 mice or other available test mice
IV dose: 1 mg/kg; vehicle: 0.5% DMSO or 0.5% MeOH-5% pharmaceutical grade polyethylene glycol-15 hydroxystearate-PBS
Sample collection: 0.03 mL of blood samples were collected from the saphenous vein in experimental animals by puncture at each time point, and the actual blood collection time was recorded. All blood samples were added to commercially available EDTA-K2 anticoagulant tubes with a specification of 1.5 mL (supplied by Jiangsu Kangjian Medical Apparatus Co., Ltd.). After collection, within half an hour, the blood sample was centrifuged at 4° C., 3000 g for 10 min to aspirate the supernatant plasma, which was put in dry ice immediately, and stored in a refrigerator at −80° C. for LCMS/MS analysis.
Blood sampling points: 5 min, 15 min, 30 min, 1 hour, 2 hours, 4 hours, 6 hours, 8 hours, 12 hours, 20 hours, 24 hours.
Test compounds: positive compound LNP023, the final product of Example 158, the final products (compound 159A and compound 159B) of Example 159, and compound 11 of Example 75.

[2] = system: Sheep Anti-Rat Fx1A Serum induced Heymann nephritis; assay: In vivo efficacy assay of passive Heymann nephritis in rats; conditions: male SD rats, intragastric twice a day for 14 days, 5, 20 and 60 mpk; LNP023 60 mpk
Text: Experimental objective: To investigate the ability of the compounds of the present disclosure to improve renal function of Sheep Anti-Rat Fx1A Serum induced Heymann nephritis in rats, including the evaluation of reducing proteinuria level and improving renal tissue damage.
Experimental animals: Male SD rats, 7 to 10 weeks old, weighing between 200 to 300 g.
Urine was collected from rats on D-2 before administration. On D1, the first day of the experiment, animals in the control group (group 1) were administered 5 mL/kg of Sheep Non-Immune serum via a single tail vein injection; animals in the model and administration groups (groups 2 to 6) were administered 5 mL/kg of Sheep Anti-Rat Fx1A Serum via a single tail vein injection.
The rats were treated by intragastric administration twice a day with an interval of 8 hours and a volume of 10 mL/kg. On D1, 1 hour before modeling, animals in groups 1 and 2 were administered blank vehicle 20% PEG400/10% Solutol/70% water; animals in group 3 were administered LNP023 (60 mpk); animals in groups 4 to 6 were administered different concentrations of synthetic compounds (5 mpk, 20 mpk, and 60 mpk); 8 hours after the first administration, each group was administered again with the same dose and volume as the first administration. From D2 to D14, animals in each group were administered different compounds or vehicles for 14 consecutive days (including the first day) according to the dose, volume, administration method, and frequency on D1.
Urine collection: Urine samples were collected from rats on D-2 before administration, and 2 to 4 hours and 4 to 6 hours after the first administration on D4, D6, D8, D11, and D14 after administration, transferred to EP tubes and stored in a refrigerator at −80° C. to −60° C. for the detection of urine protein and creatinine in rats.
Kidney sample collection: All animals were euthanized with CO2 inhalation anesthesia on Day 15, and bilateral kidneys were collected. The left kidney was cut transversely, and the right kidney was cut longitudinally. Half of the transversely cut kidney (left side) and half of the longitudinally cut kidney (right side) were fixed in formalin (placed in the same EP tube).
4. […] Urine total protein (uTP) in rats was detected without dilution; if exceeding the upper detection limit, it was 10-fold diluted (10 μL of sample+90 μL of saline (0.9% saline)) first (Decrease mode); if still exceeding the upper detection limit after 10-fold dilution, it was 100-fold diluted (2 μL of sample+198 μL of saline (0.9% saline)) (Increase mode). Data were read by the analytical instrument HITACHI LST008AS(P). • (2) Kidney pathological scoring: The degree of drug damage to rat kidneys (paraffin sections) was analyzed by HE staining. […]

[3] = system: LPS-induced complement activation; assay: In vivo efficacy assay of LPS-induced complement activation in mice; conditions: female C57BL/6J mice, LPS 100 μg intraperitoneal, PO
Description: Experimental objective: To investigate the inhibitory effect of the compounds of the present disclosure on complement activation in mice induced by LPS stimulation.
Experimental animals: Female C57BL/6J mice, 7 to 9 weeks old, weighing between 17 to 23 g.
Experimental procedure: 100 μg of lipopolysaccharide (LPS) in Salmonella typhimurium (Sigma) dissolved in 100 μL of sterile PBS was intraperitoneally injected to induce complement activation in mice. Negative control animals were intraperitoneally injected 100 μL of sterile PBS and administered alone by tube feeding (PO). Positive control animals were intraperitoneally injected LPS and PO drug vehicles (0.5% (w/v) methyl cellulose and 0.5% (v/v) Tween 80).
Sample collection: 0.3 mL of blood samples were collected from the orbital venous plexus. All blood samples were added to commercially available EDTA-K2 anticoagulant tubes with a specification of 1.5 mL. After collection, within half an hour, the blood sample was centrifuged at 4° C., 3000 g for 10 min to aspirate the supernatant plasma, which was put in dry ice immediately, and stored in a refrigerator at −80° C. for Western blot analysis of downstream C3d protein levels after complement activation.
Sample analysis: Mouse plasma (5 μL)+Lysis buffer (27.5 μL)+Loading buffer (12.5 μL)+Reducing buffer (5 μL) were mixed well and incubated at 100° C. for 15 min with a loading volume of 5 μL/well, i.e., a loading volume of plasma of 0.5 μL per well.
Test compounds: positive compound LNPO23, the final product of Example 158, the final products (compound 159A and compound 159B) of Example 159, and compound 11 of Example 75.

Structure (SMILES): CCCC1CCN(C(=O)c2c(OC)cc(C)c3[nH]ccc23)C(c2ccc(C(=O)O)cc2)C1 (single isomer, unassigned) [Compound 159B]
- clearance rate during in vivo metabolism, compared with LNP023 [1]: comparable or superior
- half-life during in vivo metabolism, compared with LNP023 [1]: comparable or superior
- performance in the kidney disease model through urine and kidney pathology analysis, compared with LNP023 [2]: performed better
- inhibition of LPS-induced complement activation (plasma C3d levels), compared with LNP023 [3]: superior or equivalent
